Results taken from US20240050491A1 (priority 2021, published 2024).

Legend:
[1] = system: Salmonella Typhimurium SL1344; assay: Salmonella survival in alfalfa sprouts with BX-77 and/or Ca-hypochlorite disinfection; type: in vivo
Source text: FIG. 19 is a graph illustrating Salmonella Typhimurium SL1344 survival in sprouts in the presence of BX-77 or absence of BX-77 after disinfection by Ca-hypochlorite of Salmonella contaminated seeds. Alfalfa seeds were contaminated by 10^2 or 10^5 CFU of Salmonella, dried, decontaminated by Ca-hypochlorite and seeded in the presence or absence of BX-77. Salmonella infected seeds were used as controls in the absence or the presence of BX-77. The experiment was repeated twice and each set included 5 cups.
(§1) Seed sterilization by Ca-hypochlorite: To assess the ability of Ca-hypochlorite to inactivate the Salmonella enterica serovar Typhimurium (STm) strain SL1344 on the seeds, alfalfa seeds were pre-contaminated with increasing concentrations of STm cells. Breifly, seeds (1 g) 15 were contaminated with the desired number of bacteria by adding 20 μL of STm suspended in SDDW and mixing by a sterile plastic spreader and then the seeds were dried at room-temp for 30 minutes. […] After 4 days the alfalfa sprouts were extracted and the STm concentration in the extract was analyzed. Salmonella Typhimurium SL1344 survival in sprouts in the presence or absence of Bacillus BX-77 was analyzed after disinfection by Ca-hypochlorite of alfalfa seeds contaminated by 10^2 or 10^5 CFU of STm. […]

Salmonella = assay: Decontamination of Salmonella contaminated alfalfa seeds by Ca-hypochlorite; type: in vivo, Salmonella enterica serovar Typhimurium; conditions: 20,000 ppm
Description: FIGS. 18A-B are graphs illustrating the influence of decontamination by Ca-hypochlorite, of Salmonella contaminated alfalfa seeds, on the concentration of Salmonella. The seeds were contaminated with Salmonella by dipping in 10^2-[…] CFU/ml. Decontamination was performed with 20,000 ppm Ca-hypochlorite. The number of Salmonella on the seeds (CFU/g seeds) was detected immediately after the contamination (A), and in the sprouts (B) after 3 days of sprouting (CFU/g sprouts). The results are representing the average and standard error of 3 independent experiments in duplicates. When bacteria were not detected, enrichment of the samples was performed in BPW. (*) Growth after enrichment. (−) No growth.
as §1, with “cells.” for “cells. Breifly, seeds (1 g) 15 were contaminated with the desired number of bacteria by adding 20 μL of STm suspended in SDDW and mixing by a sterile plastic spreader and then the seeds were dried at room-temp for 30 minutes.”

With `[Ca+2].[O-]Cl.[O-]Cl` [Ca-hypochlorite, calcium hypochlorite] the “killing of Salmonella cells” value ([1]; seeds infected by 10^2 CFU of Salmonella) was “killed all the Salmonella cells”, the “reduction of Salmonella growth” value ([1]; seeds infected by 10^5 CFU of Salmonella) was 2 log CFU/g and the efficiency of decontamination (Salmonella; higher Salmonella concentrations, 3 day sprouts) was “not efficient”. The efficiency of decontamination (Salmonella; low Salmonella concentrations up to 10^3/ml, seeds and 3 day sprouts) was “Salmonella was not detected even after sprouting”.
